Measured values from publication PMC9727064, “Performance assessment and economic analysis of a human Liver-Chip for predictive toxicology” (Communications Medicine, 2022).
Where “and” joins values, the source holds several entries; their conditions need not be identical. Equal entries are not always repeated. Entries after “also recorded” stand apart in the source; their conditions may differ. Where two headings read alike, the source gives them in different places.

What was measured:
human Liver-Chip = assay: Liver-Chip DILI prediction: minimum toxic concentration and margin of safety (MOS)-like figure; conditions: for Chip MOS donor 1 / Chip MOS both donors / Chip MOS donor 2: free IC50 concentration in the assay divided by total concentration of drug in human plasma at Cmax; for Liver-Chip toxicity determination, MOS-like figure against threshold value of 50: not corrected for protein binding, donors one and two;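 on Chip MOS both donors: Toxic concentration is the lowest across albumin IC50 and ALT and morphology endpoints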;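 on Chip MOS donor 1: Toxic concentration is the lowest across albumin IC50 and ALT and morphology endpoints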;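 on Chip MOS donor 2: Toxic concentration is the lowest across albumin IC50 and ALT and morphology endpoints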
Description: Because the fundamental principles of drug action dictate that free (unbound) drug concentrations drive drug effects, we explored an alternative methodology for calculating the MOS-like values by accounting for protein binding using a previously reported approach. Accordingly, we reanalyzed the findings for the 27 drugs in our study by accounting for protein binding.

[1] = system: human Liver-Chip (hepatocyte layer); assay: Liver-Chip immunofluorescence imaging (caspase 3/7, TMRM, AdipoRed/LipidTOX); format: cell-based; conditions: for Immunofluorescence staining result in words: caspase 3/7 (apoptosis) or TMRM (mitotoxicity), 7 days
Procedure: Chips were detached from pods and washed once with PBS. […] Afterwards, chips were washed with PBS and stored at 4 °C until staining. Following fixation, chips corresponding to low, medium, and high concentrations from each group were cut in half with a razor blade perpendicular to the co-culture channels. One half was used in the following staining protocol, while the other half was stored for future staining. All stains and washes utilized the bubble method, in which a small amount of air is flowed through the channel prior to bulk wash media to prevent a liquid-liquid dilution of the staining solution. […] Following 15 minutes of incubation at room temperature, each channel was washed with 200 µL of PBS (alternating channels, 2× for top and 3× for bottom). As an alternative lipid accumulation marker, 100 µL of HCS LipidTOX Deep Red (ThermoFisher, H34477) was diluted 1:1000 v/v in PBS with NucBlue counterstain and added to the top channel. After a 30 min incubation at room temperature, the chips were again allowed to reach room temperature before the channels were alternatively washed with 200 µL of PBS, the bottom channel undergoing three washes and the top channel undergoing two. Chips were then imaged using the Opera Phenix. Following lipid and DAPI staining and imaging, chips were stained with a […] (MRP2) antibody to visualize the bile canalicular structures characteristic of healthy Liver-Chips. […] Then, each channel was washed with 200 µL of PBS (alternating channels, 2× for top and 3× for bottom). […] Next, primary antibody Mouse anti-MRP2 (Abcam, ab3373) was prepared 1:100 in the original blocking buffer, diluted 1:4 in PBS. 100 µL of solution was added to each channel, and chips were stored overnight at 4 °C. The following day, each channel was washed with 200 µL of PBS (alternating channels, 2× for top and 3× for bottom). […] 100 µL of solution was added to each channel and chips incubated at room temperature, protected from light, for two hours. Then, each channel was washed with 200 µL of PBS (alternating channels, 2× for top and 3× for bottom). Chips were imaged immediately or stored at 4 °C until ready for imaging on the Opera Phenix. Chip replicates designated for live cell imaging were washed with PBS utilizing the bubble method. Chips were then cut in half perpendicular to the co-culture channels. […] The bottom chips halves were stained with NucBlue (Thermo) to visualize nuclei and Tetramethylrhodamine, methyl ester (TMRM) (ThermoFisher, I34361) to visualize active mitochondria. This staining panel was prepared in PBS with 5% FBS, with NucBlue at 2 drops per mL and TMRM at a 1:1000 ratio in original blocking buffer, diluted 1:4 in PBS. Chips were incubated in the dark at 37 °C for 30 min, and then each channel was washed with 200 µL of PBS (alternating channels, 2× for top and 3× for bottom). The chips were kept at 37 °C, protected from light, until ready for imaging with the Opera Phenix. Fluorescent confocal image acquisition was performed using the Opera Phenix High-Content Screening System and Harmony 4.9 Imaging and Analysis Software (PerkinElmer). Before acquisition, the Phenix internal environment was set to 37 °C and 5% CO2. […] Whole chips were placed directly into each slot, while top and bottom half chips were matched and combined in one chip slot. Chips were aligned flush with the adapter and one another. Any bubbles identified from visual inspection were washed out with PBS. Once ready, the stained chips were covered with transparent plate film to seal channel ports and loaded into the Phenix. […] Z-stacks were generated with 3.6 µm between slices for 28–32 planes so that the epithelium was located around the center of the stack. […] Raw images from fixed and live imaging were exported in TIFF format from the Harmony software. Using scripts written for FIJI (ImageJ), TIFFs across three color channels and multiple z-stacks were compiled into composite images for each field of view in each chip. […]

[2] = plasma, cited from earlier work
[3] = system: human Liver-Chip (hepatocytes and non-parenchymal cells); conditions: for Morphology Score: injury score 0-4, averaged, one line per replicate chip
Procedure: At least four to six brightfield images were acquired per chip for morphology analysis. […] Brightfield images were acquired across three fields of view on days 1, 3, and 7 for each cycle. Cytotoxicity classification was performed while acquiring images for both NPCs and hepatocytes. Images were then scored zero to four by blinded individuals (n = 2) based on severity of agglomeration of cell debris for both channels. The scoring matrix and representative images have been included in the supplement (Supplementary Fig. 1).
Hepatocyte layer on Chips
Non-parenchymal cell layer on Chips
Supplementary Figure 1. (a) Representative brightfield images to depict the cellular morphology score in the top channel of the Liver-Chip which contains hepatocytes. A score of 0 represents no hepatotoxicity detected, which is defined by 95-100% healthy hepatocyte morphology, hexagonal shape containing binucleated cells, clear cell cytoplasm, distinctive cell junctions and less than 5% dead cells. A score of 1 […]
cells. A score of 2 represents mild hepatotoxicity with > 70% monolayer of hepatocytes visible, evidence that cells have begun to lose their distinct cell junctions, many cells contain a granulated cytoplasm but < 30% are dead cells. A score of 3 represents moderate hepatotoxicity with severe granulation of cytoplasm and most of the cells have lost their junctions. Approximately 50% of the cells are considered dead. A score of 4 represents severe hepatotoxicity with agglomeration of cell debris and > 50% of the cells are considered dead. The pores on the membrane become visible as there is no longer a cellular monolayer. (b) Representative brightfield images to depict the cellular morphology score in the bottom channel of the Liver-Chip which contains non-parenchymal cells. A score of 0 represents no cytotoxicity detected, with an intact monolayer and <1% of the cells are dead. A score of 1 represents at least 90% of the monolayer is present and there are <10% dead cells. A score of 2 represents mild cytotoxicity with > 80% of the monolayer present and < 20% are dead cells. A score of 3 represents moderate cytotoxicity with > 50% of the monolayer present and < 50% are dead cells. A score of 4 represents severe cytotoxicity with > 50% of the cells are considered dead. (bar, 50 μm). […]

[4] = system: clinical drug-induced liver injury; conditions: clinical DILI severity category 1 to 5; cited from earlier work
[5] = day 7 post-drug administration, hepatocyte layer, top channel
[6] = lowest concentration causing an increase in cellular morphology score, donor 1
[7] = lowest concentration causing an increase in cellular morphology score, donor 2
[8] = expanded drug list, lowest concentration causing an increase in morphology score, donor 1

SMILES	Chip MOS donor 1 (human Liver-Chip)	IF imaging Donor 1 ([1]; expanded drug list)	Expected Fraction Unbound in Plasma ([2]; ref Lau, S.W.J. (65))	Morphology Donor 1 ([3]; human)	Garside DILI rank [4]	Chip MOS both donors (human Liver-Chip)	Chip MOS donor 2 (human Liver-Chip)	Liver-Chip toxicity determination, MOS-like figure against threshold value of 50 (human Liver-Chip)	Immunofluorescent findings, donor two (Supplementary Figure 3) [1, 5]	IF imaging Donor 2 ([1]; expanded drug list)	Morphology Donor 2 ([3]; human)	Immunofluorescent findings, donor one (Supplementary Figure 3) [1, 5]	further results
C=C[C@@H]1C[C@]1(NC(=O)[C@@H]1C[C@@H](Oc2ncc(OC)c3ccc(Cl)cc23)CN1C(=O)[C@@H](NC(=O)OC(C)(C)C)C(C)(C)C)C(=O)NS(=O)(=O)C1CC1 [Asunaprevir]	4	Apoptosis	0.012	1000 unbound human Cmax multiplier	2								Immunofluorescence staining result in words [1]: apoptosis-mediated cell death; Morphological injury score change in words [3]: concentration and time-dependent changes
CC(C(=O)O)c1ccc2oc(-c3ccc(Cl)cc3)nc2c1 (stereo not shown) [Benoxaprofen]	0.001	Apoptosis		< 0.1 unbound human Cmax multiplier	1	0.001	0.3	hepatotoxic	Apoptosis	Apoptosis	100 unbound human Cmax multiplier		Expected Fraction Unbound in Plasma ([2]; ref Scott, L. J. (69)): 0.01
O=c1[nH]c(=O)n([C@@H]2O[C@H](CO)[C@@H](O)[C@@H]2F)cc1I [FIRU]	>108				5	>108	>108					No findings	IF imaging Donor 1 ([1]; matched pair analysis): No findings; IF imaging Donor 2 ([1]; matched pair analysis): Steatosis; Expected Fraction Unbound in Plasma ([2]; ref Scott, L. J. (69)): *0.36; Morphology Donor 1 [3, 6]: >300 multiples of the unbound human Cmax; Morphology Donor 2 [3, 7]: >300 multiples of the unbound human Cmax
CC(CCc1ccccc1)NCC(O)c1ccc(O)c(C(N)=O)c1 (stereo not shown) [Labetalol]	26	Apoptosis	0.5	> 100 unbound human Cmax multiplier	1	22	22	hepatotoxic	Apoptosis	Apoptosis	100 unbound human Cmax multiplier	Apoptosis	
O=C(NC1CCN(CCCCC2(C(=O)NCC(F)(F)F)c3ccccc3-c3ccccc32)CC1)c1ccccc1-c1ccc(C(F)(F)F)cc1 [Lomitapide]	0	No findings	0.002		3							No findings	Hepatotoxicity in the Liver-Chip, in words (human Liver-Chip; albumin, ALT and morphology endpoints together): highly toxic; Morphology Donor 1 [3, 8]: < 0.1 unbound human Cmax multiplier
Cc1cc2c(s1)Nc1ccccc1N=C2N1CCN(C)CC1 [Olanzapine]	>20				5	>20	>2					Apoptosis	Immunofluorescent findings, donor three (Supplementary Figure 3) ([1]; day 7 post-drug administration, hepatocyte layer, top channel, donor three): No findings; IF imaging Donor 1 ([1]; matched pair analysis): Apoptosis; IF imaging Donor 2 ([1]; matched pair analysis): No findings; IF imaging Donor 3 ([1]; matched pair analysis, donor 3): No findings; Expected Fraction Unbound in Plasma ([2]; reference data from the literature, no reference): 0.07; Morphology Score ([3]; Concentration_Day3 = 1): 2 and 1; Morphology Score ([3]; Concentration_Day3 = 3): 1.333 and 1; Morphology Score ([3]; Concentration_Day3 = 10): 2 and 1; Morphology Score ([3]; Concentration_Day3 = 30): 2; Morphology Score ([3]; Concentration_Day3 = 100): 1.667 and 1.333; Morphology Score ([3]; Concentration_Day3 = 300): 1.333 and 2; Morphology Donor 1 [3, 6]: >300 multiples of the unbound human Cmax; Morphology Donor 2 [3, 7]: >300 multiples of the unbound human Cmax; Morphology Donor 3 ([3]; lowest concentration causing an increase in cellular morphology score, donor 3): >300 multiples of the unbound human Cmax
Cc1cn([C@H]2C=C[C@@H](CO)O2)c(=O)[nH]c1=O [Stavudine]	247	No findings	1	300 unbound human Cmax multiplier	1	107	107	not detected; also recorded: false negative	Mitotoxicity	Mitotoxicity	300 unbound human Cmax multiplier	No findings	Liver-Chip toxicity determination, protein-binding-corrected MOS-like figure, threshold 375 (human Liver-Chip; 18 drugs tested in both donors): detection
Nc1c2c(nc3ccccc13)CCCC2 [Tacrine]	>12	Apoptosis	0.25		2	>12	>12	not detected		Apoptosis		Apoptosis	Immunofluorescence staining result in words [1]: increased caspase 3/7 staining; Morphology Donor 1 [3, 8]: > 300 unbound human Cmax multiplier; Morphology Donor 2 ([3]; expanded drug list, lowest concentration causing an increase in morphology score, donor 2): > 1000 unbound human Cmax multiplier
